Tests used:
Conditions in all cases: 72 h
[1] = test system: Caco-2; test: cell viability relative to DMSO; higher = less toxic
[2] = test system: Calu-3; test: as above
[3] = test system: HepG2; test: as above
[4] = test system: U2OS; test: as above
[5] = test system: Vero E6; test: as above
[6] = test system: Caco-2; test: relative viability EC50 (midpoint between 100% and the lowest measured viability); higher = less toxic
[7] = test system: Calu-3; test: as above
[8] = test system: HepG2; test: as above
[9] = test system: U2OS; test: as above
[10] = test system: Caco-2; test: drug sensitivity score (DSS) for viability; higher = more toxic; extreme values may be limits of the assay
[11] = test system: Calu-3; test: as above
[12] = test system: HepG2; test: as above
[13] = test system: U2OS; test: as above
[14] = test system: Vero E6; test: as above
[15] = test system: Vero E6; test: relative viability EC50 (midpoint between 100% and the lowest measured viability); higher = less toxic

| SMILES | cell viability ([1]; 1 nM) | cell viability ([1]; 10 nM) | cell viability ([1]; 100 nM) | cell viability ([1]; 1000 nM) | cell viability ([1]; 10000 nM) | cell viability ([2]; 1 nM) | cell viability ([2]; 10 nM) | cell viability ([2]; 100 nM) | cell viability ([2]; 1000 nM) | cell viability ([2]; 10000 nM) | cell viability ([3]; 1 nM) | cell viability ([3]; 10 nM) | cell viability ([3]; 100 nM) | cell viability ([3]; 1000 nM) | cell viability ([3]; 10000 nM) | cell viability ([4]; 1 nM) | cell viability ([4]; 10 nM) | cell viability ([4]; 100 nM) | cell viability ([4]; 1000 nM) | cell viability ([4]; 10000 nM) | cell viability ([5]; 1 nM) | cell viability ([5]; 10 nM) | cell viability ([5]; 100 nM) | cell viability ([5]; 1000 nM) | cell viability ([5]; 10000 nM) | relative viability EC50 [6] | relative viability EC50 [7] | relative viability EC50 [8] | relative viability EC50 [9] | drug sensitivity score [10] | drug sensitivity score [11] | drug sensitivity score [12] | drug sensitivity score [13] | drug sensitivity score [14] | relative viability EC50 [15] |
| --- | --- | --- | --- | --- | --- | --- | --- | --- | --- | --- | --- | --- | --- | --- | --- | --- | --- | --- | --- | --- | --- | --- | --- | --- | --- | --- | --- | --- | --- | --- | --- | --- | --- | --- | --- |
| CCc1ccc(C2=CC(C)(C)Sc3ccc(C#Cc4ccc(C(=O)O)cc4)cc32)cc1 | 100% | 103% | 97.7% | 100% | 79.4% | 90.9% | 113% | 95.5% | 94.6% | 95.2% | 94.7% | 89.7% | 83.7% | 80.6% | 90.1% | 101% | 102% | 96.6% | 104% | 93.2% | 98.5% | 89.8% | 81.2% | 74.9% | 80.6% | > 10 µM | > 10 µM | > 10 µM | > 10 µM | 0.6 | 0 | 2.9 | 0 | 6.1 | – |
| CN[C@@H]1[C@H](O)[C@H](NC)[C@H]2O[C@@]3(O)C(=O)C[C@@H](C)O[C@H]3O[C@@H]2[C@H]1O [spectinomycin] | 100% | 102% | 99.4% | 109% | 91.9% | 92.2% | 100% | 105% | 103% | 88.7% | 88.4% | 105% | 98.7% | 106% | 96.7% | 101% | 107% | 100% | 102% | 98.5% | 56% | 108% | 55.1% | 108% | 59.1% | > 10 µM | > 10 µM | > 10 µM | > 10 µM | 0 | 0 | 0 | 0 | 1.2 | – |
| COc1cc(N2CCC(N3CCN(C)CC3)CC2)ccc1Nc1ncc(Cl)c(Nc2ccccc2S(=O)(=O)C(C)C)n1 [NVP-TAE684] | 103% | 104% | 101% | 87.4% | 53.5% | 97.2% | 94.5% | 90.2% | 86.6% | 61.5% | 91.7% | 96.1% | 103% | 63.9% | 34.2% | 106% | 97.9% | 102% | 91.2% | 22.9% | 100% | 97.2% | 93.5% | 89.5% | 42.6% | – | – | 0.926 µM | 2.22 µM | 4.3 | 3.4 | 8.1 | 5.7 | 4.9 | 1.81 µM |
| Oc1cc2c(cc1O)[C@H]1c3ccccc3CN[C@@H]1CC2 (racemic) [dihydrexidine] | 102% | 97.7% | 99.6% | 92.6% | 97.9% | – | – | – | – | – | 83.4% | 95.8% | 90.9% | 93.2% | 82.1% | 101% | 93.2% | 104% | 96.9% | 104% | 96.7% | 96.7% | 96.8% | 97.6% | 104% | > 10 µM | – | > 10 µM | > 10 µM | 0 | – | 0 | 0 | 0 | > 10 µM |
| CO[C@H]1/C=C/O[C@@]2(C)Oc3c(C)c(O)c4c(O)c(c(/C=N/N5CCN(C)CC5)c(O)c4c3C2=O)NC(=O)/C(C)=C\C=C\[C@H](C)[C@H](O)[C@@H](C)[C@@H](O)[C@@H](C)[C@H](OC(C)=O)[C@@H]1C [rifampin] | 88.9% | 88.7% | 90.8% | 88.5% | 105% | 99.5% | 99.6% | 98.7% | 99.8% | 102% | 97.9% | 102% | 104% | 89.4% | 92.4% | 96% | 105% | 98.2% | 97.2% | 86.9% | 68.7% | 97.8% | 70.2% | 103% | 64.7% | > 10 µM | > 10 µM | > 10 µM | > 10 µM | 0 | 0 | 0.1 | 0.3 | 1.2 | – |
| CC(C)OC(=O)CNC(=O)[C@H](CS)NC(=O)CC[C@H](N)C(=O)O [glutathione-monoisopropyl-ester] | 95.7% | 103% | 96.2% | 103% | 96.3% | – | – | – | – | – | 102% | 103% | 105% | 101% | 97.3% | – | – | – | – | – | 99.3% | 103% | 99.5% | 99.7% | 100% | > 10 µM | – | > 10 µM | – | 0 | – | 0 | – | 0 | > 10 µM |
| CN(C)CCOC1=Cc2ccccc2Sc2ccc(Cl)cc21 [zotepine] | 92.4% | 84.1% | 91.9% | 90.7% | 75.7% | 101% | 85.3% | 93.3% | 104% | 80.8% | 104% | 95% | 98.7% | 91.8% | 45.7% | 104% | 97.2% | 97.7% | 91.5% | 92.4% | 99.4% | 93.6% | 98.6% | 94.1% | 70.4% | > 10 µM | > 10 µM | 1.98 µM | > 10 µM | 0 | 0.4 | 4.3 | 0 | 2.2 | – |
| Nc1nccc(-c2c(-c3ccc(F)cc3)ncn2C2CCCCC2)n1 | 102% | 96.2% | 97.3% | 85.2% | 74.8% | 91.1% | 100% | 105% | 87% | 62.1% | 97.8% | 99.7% | 100% | 92.4% | 43.3% | 98.2% | 102% | 103% | 95.5% | 85% | 105% | 103% | 99.2% | 108% | 79.8% | – | – | 2.08 µM | > 10 µM | 2.3 | 3.7 | 4.3 | 0.6 | 0.4 | > 10 µM |
| Fc1ccc(CNc2ncnc3ccc(F)cc23)cc1 [spautin-1] | 99.7% | 98.9% | 96% | 91% | 69.3% | 97.3% | 90.2% | 100% | 88.6% | 70.1% | 99.2% | 102% | 104% | 88.8% | 26.3% | 92.2% | 97.4% | 101% | 95.5% | 96.7% | 102% | 96% | 96.6% | 89.5% | 89.1% | – | – | 1.98 µM | > 10 µM | 2.4 | 2.8 | 5.9 | 0 | 0.1 | > 10 µM |
| CC(=O)c1ccc2c(c1)[C@@H]1C=CC[C@@H]1[C@H](c1cc3c(cc1Br)OCO3)N2 [G-1] | 96.8% | 93.4% | 102% | 98% | 58.2% | – | – | – | – | – | 95.4% | 88.4% | 111% | 105% | 36.4% | 100% | 98.2% | 94.3% | 102% | 49.7% | 102% | 93.3% | 95.8% | 84.8% | 37.1% | – | – | 3.53 µM | 3.38 µM | 2.4 | – | 3.1 | 2.5 | 5.8 | 1.57 µM |
| Nc1ncnc2c1c(-c1ccc(Oc3ccccc3)cc1)nn2C1CCCC1 | 109% | 96.7% | 95.7% | 93.6% | 70.1% | 105% | 104% | 99% | 95.8% | 54.5% | 89.7% | 101% | 92% | 88.3% | 82% | 102% | 97.3% | 101% | 97.4% | 78.7% | 94.2% | 100% | 97.1% | 90.8% | 87.1% | – | – | > 10 µM | > 10 µM | 2.3 | 3 | 1 | 1.1 | 0.3 | > 10 µM |
| NC(=O)CN1C=CCC(C(N)=O)=C1 [caricotamide] | 113% | 103% | 103% | 97.7% | 104% | – | – | – | – | – | 93.2% | 103% | 104% | 116% | 106% | – | – | – | – | – | 101% | 95.4% | 99.5% | 99% | 101% | > 10 µM | – | > 10 µM | – | 0 | – | 0 | – | 0 | > 10 µM |
| CCCNCC(O)COc1ccccc1C(=O)CCc1ccccc1 (centres undefined) [propafenone] | 94.7% | 89.5% | 98.4% | 92.8% | 88.9% | 105% | 95.3% | 103% | 93.7% | 99.7% | 99.3% | 94% | 96.4% | 99.4% | 75.1% | 99.1% | 93.1% | 95.6% | 94.3% | 92.5% | 106% | 108% | 106% | 92.2% | 64.9% | > 10 µM | > 10 µM | > 10 µM | > 10 µM | 0 | 0 | 1 | 0 | 2.9 | – |
